Data as given in patent US12370235B2, “Synthetic, non-natural antimicrobial peptides inspired by Staphylococcus auricularis delta toxin” (University of Saskatchewan, priority 2021, dated 2025).
Ends that are not written are not given here.

Experiments:
M. luteus ATCC 4698 = assay: MIC, broth dilution; format: cell-based, Micrococcus luteus; details: for MIC (μg/mL) M. luteus: Table 4, liquid broth; for MIC M. luteus: M. luteus ATCC 4698
Description: (§1) MIC determination. MICs were measured using peptides with 95% purity. For bacterial studies, cation-adjusted Mueller Hinton (MH) broth was used as the growth medium whereas Yeast Peptone Dextrose (YPD; 10 g/L yeast extract, 20 g/L peptone, 20 g/L dextrose) was used for Candida spp. and other yeast. Microorganisms were diluted to an optical density of […] in MH or YPD broth and a 180 μl volume was mixed with 20 μl of peptide arrayed as a 2-fold dilution series in a flat-bottom 96-well microtitre plate. A control was performed using 20 μl of sterile water. Plates were incubated as standing cultures overnight at 37° C.
(§2) Determination of minimum inhibitory concentrations. The MICs were measured for bioactive peptides identified from the initial screen. For bacterial studies, cation-adjusted Mueller Hinton (MH) broth was used as the growth medium whereas YPD was used for C. albicans. Bacterial cultures were diluted to a OD value of 6×10^−4 in MH broth and a 180 μl volume was mixed with 20 μl of peptide arrayed as 2-fold dilution series in a 96-well plate. For the positive control, 20 μl of sterile water was used. Plates were incubated as standing cultures overnight at 37° C. The lowest peptide concentration that resulted no observed microbial growth after an overnight treatment was defined as the MIC.

[1] = system: Mannheimia haemolytica ATCC 33393; assay: MIC, broth dilution; format: cell-based; details: for MIC (μg/mL) M. haemolytica: Table 10, liquid broth; for MIC M. haemolytica: M. haemolytica ATCC 33393
Description: as §1, §2
The ability of STIP3 variants to inhibit the growth of Mannheimia haemolytica ATCC 33393 was evaluated. This included an alanine scan of STIP3-1 (FIG. 8 & Table 10) as well as 30 rationally-designed STIPs that were evaluated in the preceding Examples against other pathogens (Table 11). Substitutions at a greater number of sites were tolerated in the context of antimicrobial activity. Moreover, the inclusion of basic natural and unnatural amino acids (e.g. lysine, ornithine, and arginine) at positions 3, 4 and 11 (i.e. X1, X2, and X4 of SEQ ID NO: 32) to afford a more uniformly cationic peptide increased activity against M. haemolytica.

S. aureus ATCC 29213 = assay: MIC, broth dilution; format: cell-based, Staphylococcus aureus; details: for MIC (μg/mL) S. aureus: liquid broth; for MIC S. aureus: S. aureus ATCC 29213
Description: as §1, §2

C. albicans MYA-2876 = assay: MIC, YPD broth; format: cell-based, Candida albicans; details: Candida albicans MYA-2876
Description: as §1, §2

Substance | MIC (μg/mL) M. luteus (M. luteus ATCC 4698) | MIC (μg/mL) M. haemolytica [1] | MIC (μg/mL) S. aureus (S. aureus ATCC 29213; Table 4) | MIC (μg/mL) S. aureus (S. aureus ATCC 29213; Table 10) | MIC M. luteus (M. luteus ATCC 4698) | MIC M. haemolytica [1] | MIC C. albicans (C. albicans MYA-2876) | MIC S. aureus (S. aureus ATCC 29213)
TAGGLVKWILDTVKKFA [V2A, TAGGLVKWILDTVKKFA] | 50 µg/mL | 100 µg/mL | > (> = >200 μg/mL (maximum concentration tested)) | > (the use of > indicates an MIC > 200 μg/mL; the maximum concentration tested) |  |  |  | 
TVGGAVKWILDTVKKFA [L5A, TVGGAVKWILDTVKKFA] | 100 µg/mL | > (the use of > indicates an MIC > 200 μg/mL; the maximum concentration tested) | > (> = >200 μg/mL (maximum concentration tested)) | > (the use of > indicates an MIC > 200 μg/mL; the maximum concentration tested) |  |  |  | 
TVGGLAKWILDTVKKFA [V6A, TVGGLAKWILDTVKKFA] | 50 µg/mL | 100 µg/mL | > (> = >200 μg/mL (maximum concentration tested)) | > (the use of > indicates an MIC > 200 μg/mL; the maximum concentration tested) |  |  |  | 
TVGGLVAWILDTVKKFA [K7A, TVGGLVAWILDTVKKFA] | 200 µg/mL | > (the use of > indicates an MIC > 200 μg/mL; the maximum concentration tested) | > (> = >200 μg/mL (maximum concentration tested)) | > (the use of > indicates an MIC > 200 μg/mL; the maximum concentration tested) |  |  |  | 
TVGGLVKAILDTVKKFA [W8A, TVGGLVKAILDTVKKFA] | 100 µg/mL | 200 µg/mL | > (> = >200 μg/mL (maximum concentration tested)) | > (the use of > indicates an MIC > 200 μg/mL; the maximum concentration tested) |  |  |  | 
TVGGLVKWALDTVKKFA [I9A, TVGGLVKWALDTVKKFA] | 200 µg/mL | > (the use of > indicates an MIC > 200 μg/mL; the maximum concentration tested) | > (> = >200 μg/mL (maximum concentration tested)) | > (the use of > indicates an MIC > 200 μg/mL; the maximum concentration tested) |  |  |  | 
TVGGLVKWIADTVKKFA [L10A, TVGGLVKWIADTVKKFA] | 200 µg/mL | 200 µg/mL | > (> = >200 μg/mL (maximum concentration tested)) | > (the use of > indicates an MIC > 200 μg/mL; the maximum concentration tested) |  |  |  | 
TVGGLVKWILDTAKKFA [V13A, TVGGLVKWILDTAKKFA] | 50 µg/mL | 200 µg/mL | 200 µg/mL |  |  |  |  | 
TVGGLVKWILDTVKKAA [F16A, TVGGLVKWILDTVKKAA] | 200 µg/mL | > (the use of > indicates an MIC > 200 μg/mL; the maximum concentration tested) | > (> = >200 μg/mL (maximum concentration tested)) | > (the use of > indicates an MIC > 200 μg/mL; the maximum concentration tested) |  |  |  | 
TVKSFVNLILDTVKKYAK [STIP8-1] |  |  |  |  | 100 µg/mL | > (the use of > indicates an MIC >200 μg/mL; the maximum concentration tested) | 100 µg/mL | > (the use of > indicates an MIC >200 μg/mL; the maximum concentration tested)
TVKSFVNLILKTVKKYAK [STIP8-2] |  |  |  |  | 6.25 µg/mL | 100 µg/mL | 100 µg/mL | > (the use of > indicates an MIC >200 μg/mL; the maximum concentration tested)
TVKSFVNLILKTVKKYAK-NH2 [STIP8-3] |  |  |  |  | 3.13 µg/mL | 50 µg/mL | > (the use of > indicates an MIC >200 μg/mL; the maximum concentration tested) | > (the use of > indicates an MIC >200 μg/mL; the maximum concentration tested)
TVTKFVKLIAETVKKFTK [STIP9-1] |  |  |  |  | 50 µg/mL | 200 µg/mL | 100 µg/mL | > (the use of > indicates an MIC >200 μg/mL; the maximum concentration tested)
TVTKFVKLIAKTVKKFTK [STIP9-2] |  |  |  |  | 6.25 µg/mL | 100 µg/mL | 25 µg/mL | > (the use of > indicates an MIC >200 μg/mL; the maximum concentration tested)
TVTKFVKLIAKTVKKFTK-NH2 [STIP9-3] |  |  |  |  | 3.13 µg/mL | 100 µg/mL | 100 µg/mL | > (the use of > indicates an MIC >200 μg/mL; the maximum concentration tested)
